In patent publication US9833423B2 (KOREA RESEARCH INSTITUTE OF CHEMICAL TECHNOLOGY, priority 2011, dated 2017):
Converted amounts (≈) assume the structure as drawn. Like-named read-outs stand apart in the source and are kept apart here.

Assays:
Coxsackie-virus B1 = assay: Cytopathic effect (CPE) inhibition assay; type: cell-based, Coxsackievirus B1; conditions: Table 3, HeLa, 37° C., 2 days; for EC50: Enterovirus B, HeLa37, 48 h, read-out: EC50 Coxsackie-virus B1
Coxsackie-virus B3 = assay: Cytopathic effect (CPE) inhibition assay; type: cell-based, Coxsackievirus B3; conditions: Table 3, HeLa, 37° C., 2 days; for EC50: Enterovirus B, HeLa37, 48 h, read-out: EC50 Coxsackie-virus B3
Coxsackie-virus A24 (HG) = assay: Cytopathic effect (CPE) inhibition assay; type: cell-based, Coxsackievirus A24; conditions: Table 3, MRC-5, 37° C., 2 days; for EC50: Enterovirus C, MRC5, 48 h
Polio-virus 3 = assay: microbe, parasite or virus in culture; type: cell-based, Poliovirus 3; conditions: for EC50: Enterovirus C, HeLa37, 48 h, read-out: EC50 Polio-virus 3
Entero-virus 70 = assay: Cytopathic effect (CPE) inhibition assay; type: cell-based, Enterovirus 70; conditions: Enterovirus D, MRC5, 48 h; Table 3; MRC-5, 37° C., 2 days
[1] = Cytotoxicity (CC50), MTS-based multicycle CPE reduction assay, Experimental Example 2; type: cell-based; conditions: Table 5
Protocol: (§1) The test compounds were evaluated for anti-picornavirus activity by a multicycle cytopathic effect (CPE) reduction assay. The antiviral activity was initially determined using an MTS [3-(4,5-dimethylthiazol-2-yl)-5-(3-carboxymethoxyphenyl)-2-(4-sulfophenyl)-2H-tetrazolium]-based CPE reduction assay.
(§2) In this regard, cells grown to confluence in 96-well plates were infected with 100 50% cell culture infective doses (CCID50) of virus. After an adsorption period of 2 hrs at 37° C., virus was removed and serial dilutions of the compounds were added. […] After removal of the medium, 90 μl of a culture medium and 10 μl of MTS-phenazine methosulfate (Promega, Leiden, The Netherlands) were added to each well. After an incubation period of 2 hrs at 37° C., the optical density (OD) of each well was read at 498 nm in a microplate reader.
(§3) CPE values for evaluating cytotoxicity were calculated using the following Mathmatic Formula 4: […]
(§4) The 50% effective concentration (EC50) and the 50 cytotoxic concentration (CC50) were defined as the concentrations of compound that offered 50% protection against virus-induced CPE and that killed cells by 50%, respectively, and were calculated using logarithmic interpolation.

uninfected cell cultures = assay: as above; type: cell-based
Protocol: as §1, §2, §3, §4

Coxsackie B3 = assay: Multicycle CPE reduction assay; type: cell-based, Coxsackievirus B3; conditions: Enterovirus B, 37° C. in Vero cells
Protocol: as §1, §2
(§5) CPE values for evaluating antiviral activity were calculated using the following Mathmatic Formula 3: […]
as §4

Coxsackie A16 = assay: Multicycle CPE reduction assay; type: cell-based, Coxsackievirus A16; conditions: Enterovirus A, A16, MRC5; 37° C. in MRC-5 cells
Protocol: as §1, §2, §5, §4

Coxsackie A21 = assay: Multicycle CPE reduction assay; type: cell-based, Coxsackievirus A21; conditions: Enterovirus C, A21, MRC5, read-out: Coxsackie A21 EC50
Entero 71 = assay: Multicycle CPE reduction assay; type: cell-based, enterovirus 71; conditions: Enterovirus A; 37° C. in RD cells
Protocol: as §1, §2, §5, §4

Echo 9 = assay: Multicycle CPE reduction assay; type: cell-based, echovirus 9; conditions: Enterovirus B, MRC5; 37° C. in MRC-5 cells
Protocol: as §1, §2, §5, §4

Echo 11 = assay: Multicycle CPE reduction assay; type: cell-based, echovirus 11; conditions: Enterovirus B; 37° C. in BGM cells
Protocol: as §1, §2, §5, §4

Polio 1 = assay: microbe, parasite or virus in culture; type: cell-based, poliovirus 1; conditions: Enterovirus C, BGM, read-out: Polio 1 EC50
Polio 3 = assay: microbe, parasite or virus in culture; type: cell-based, poliovirus 3; conditions: Enterovirus C, BGM, read-out: Polio 3 EC50
Rhino 2 = assay: Multicycle CPE reduction assay; type: cell-based, rhinovirus 2; conditions: Enterovirus; 37° C. in HeLa cells
Protocol: as §1, §2, §5, §4

Rhino 9 = assay: Multicycle CPE reduction assay; type: cell-based, rhinovirus 9; conditions: Enterovirus; 37° C. in HeLa cells
Protocol: as §1, §2, §5, §4

Rhino 15 = assay: Multicycle CPE reduction assay; type: cell-based, rhinovirus 15; conditions: Enterovirus; 37° C. in HeLa cells
Protocol: as §1, §2, §5, §4

Rhino 29 = assay: Multicycle CPE reduction assay; type: cell-based, rhinovirus 29; conditions: Enterovirus; 37° C. in HeLa cells
Protocol: as §1, §2, §5, §4

Rhino 39 = assay: Multicycle CPE reduction assay; type: cell-based, rhinovirus 39; conditions: Enterovirus; 37° C. in HeLa cells
Protocol: as §1, §2, §5, §4

Rhino 41 = assay: Multicycle CPE reduction assay; type: cell-based, rhinovirus 41; conditions: Enterovirus; 37° C. in HeLa cells
Protocol: as §1, §2, §5, §4

Rhino 45 = assay: Multicycle CPE reduction assay; type: cell-based, rhinovirus 45; conditions: 37° C. in HeLa cells
Protocol: as §1, §2, §5, §4

Rhino 63 = assay: Multicycle CPE reduction assay; type: cell-based, rhinovirus 63; conditions: Enterovirus; 37° C. in HeLa cells
Protocol: as §1, §2, §5, §4

Rhino 85 = assay: Multicycle CPE reduction assay; type: cell-based, rhinovirus 85; conditions: Enterovirus; 37° C. in HeLa cells
Protocol: as §1, §2, §5, §4

Rhino 89 = assay: Multicycle CPE reduction assay; type: cell-based, rhinovirus 89; conditions: Enterovirus; 37° C. in HeLa cells
Protocol: as §1, §2, §5, §4

Rhino 14 = assay: Multicycle CPE reduction assay; type: cell-based, rhinovirus 14; conditions: Enterovirus; 37° C. in HeLa cells
Protocol: as §1, §2, §5, §4

Rhino 42 = assay: Multicycle CPE reduction assay; type: cell-based, rhinovirus 42; conditions: Enterovirus; 37° C. in HeLa cells
Protocol: as §1, §2, §5, §4

Rhino 70 = assay: Multicycle CPE reduction assay; type: cell-based, rhinovirus 70
Protocol: as §1, §2, §5, §4

Rhino 72 = assay: Multicycle CPE reduction assay; type: cell-based, rhinovirus 72; conditions: Enterovirus; 37° C. in HeLa cells
Protocol: as §1, §2, §5, §4

Rhino 86 = assay: Multicycle CPE reduction assay; type: cell-based, rhinovirus 86; conditions: Enterovirus; 37° C. in HeLa cells
Protocol: as §1, §2, §5, §4

[2] = tested on: coxsackieviruses B3, A16, A9, and A21; assay: Multicycle CPE reduction assay, text summary; type: cell-based; conditions: Table 5; read-out: EC50 against coxsackieviruses B3, A16, A9, and A21
Protocol: as §1, §2, §5, §4

in vitro = conditions: human, CC50
Coxsackie-virus A24 (DN) = assay: Cytopathic effect (CPE) inhibition assay; type: cell-based, Coxsackievirus A24; conditions: Table 3, MRC-5, 37° C., 2 days; for EC50: Enterovirus C, MRC5, 48 h
Coxsackie A9 = assay: Multicycle CPE reduction assay; type: cell-based, Coxsackievirus A9; conditions: Enterovirus B, 37° C. in BGM cells
[3] = tested on: echovirus 9 and echovirus 11; assay: Multicycle CPE reduction assay, text summary; type: cell-based; conditions: Enterovirus B; Table 5; read-out: EC50 against echovirus 9 and echovirus 11
polioviruses 1, 2 and 3 = assay: organism not typed; type: cell-based; conditions: read-out: EC50 against polioviruses 1, 2 and 3
Rhino 59 = assay: Multicycle CPE reduction assay; type: cell-based, rhinovirus 59; conditions: Enterovirus; 37° C. in HeLa cells
[4] = tested on: mock-infected cells (HeLa, MRC-5, RD); conditions: human
Coxsackie-virus B4 = assay: Cytopathic effect (CPE) inhibition assay; type: cell-based, Coxsackievirus B4; conditions: Enterovirus B, HeLa37, 48 h; Table 3; HeLa, 37° C., 2 days
Polio-virus 2 = assay: microbe, parasite or virus in culture; type: cell-based, Poliovirus 2; conditions: Enterovirus C, read-out: EC50 Polio-virus 2
[5] = Enterovirus, HeLa, read-out: Rhino 70 EC50, 37° C. in HeLa cells

Row | Structure (SMILES) | EC50 (Coxsackie-virus B1) [µg/mL] | EC50 (Coxsackie-virus B3) [µg/mL] | EC50 (Coxsackie-virus A24 (HG)) [µg/mL] | EC50 (Polio-virus 3) [µg/mL] | CC50 at 3 days [1] [nM] | EC50 (Entero 71) [nM] | EC50 (Echo 9) [nM] | EC50 (Echo 11) [nM] | EC50 (Polio 1) [nM] | EC50 (Rhino 2) [nM] | EC50 (Rhino 9) [nM] | EC50 (Rhino 15) [nM] | EC50 (Rhino 29) [nM] | EC50 (Rhino 39) [nM] | EC50 (Rhino 41) [nM] | EC50 (Rhino 45; Enterovirus, HeLa) [nM] | EC50 (Rhino 63) [nM] | EC50 (Rhino 85) [nM] | EC50 (Rhino 89) [nM] | melting point [°C] | other results
1 | CC(=O)Oc1cc(C(C)C)ccc1C1(OC(C)=O)C(=O)c2ccccc2C1=O [Example 19, Acetic acid 2-(2-acetoxy-4-isopropyl-phenyl)-1,3-dioxo-indan-2-yl ester] | < 0.01 | < 0.01 | < 1 | < 1 | ≥ 100000 | 100 ± 1.8 | 17 ± 6.7 | 17 ± 7.8 | 790 ± 360 | > 50000 | > 50000 | > 50000 | > 50000 | > 50000 | > 50000 | 4600 ± 8.3 | > 50000 | > 50000 | > 50000 | 136 to 137 | EC50 (Entero-virus 70): < 0.01 µg/mL; CC50 (uninfected cell cultures; Table 5, listed as Ex. 19): > 100000 nM; EC50 (Coxsackie B3): < 10 nM; EC50 (Coxsackie A16): 64 ± 10 nM; EC50 (Coxsackie A21): 670 ± 130 nM; EC50 (Polio 3): < 1000 nM; EC50 (Rhino 14): 450 ± 410 nM; EC50 (Rhino 42): > 50000 nM; EC50 (Rhino 70; [5]): 2000 ± 120 nM; EC50 (Rhino 72): 4600 ± 92 nM; EC50 (Rhino 86): 26000 ± 18000 nM; EC50 [2]: 10 nM; CC50 (in vitro): 17.7 µg/mL (≈ 46.5 µM)
2 | CC(=O)Oc1cc(C(C)C)ccc1C1(OC(C)=O)C(=O)c2cccc(N)c2C1=O (centres unmarked) [Example 36, Acetic acid 2-(2-acetoxy-4-isopropyl-phenyl)-4-amino-1,3-dioxo-indan-2-yl ester] | < 0.01 | < 0.01 | < 0.01 | < 0.01 | > 50000 | 6.7 | 11 ± 3.2 | 8.2 ± 1.9 | 220 ± 50 | 7800 ± 570 | 1200 ± 120 | 1500 ± 240 | 5500 ± 720 | 1400 ± 200 | 540 ± 3 | ≤ 78 | > 10000 | 7500 ± 1200 | 490 ± 38 | 148 to 151 | EC50 (Coxsackie-virus A24 (DN)): < 0.1 µg/mL; EC50 (Coxsackie B3): < 10 nM; EC50 (Coxsackie A9): 7 ± 0.18 nM; EC50 (Polio 3): < 10 nM; EC50 (Rhino 45; listed as Ex. 36): < 78 nM; EC50 (Rhino 14): 350 ± 320 nM; EC50 (Rhino 70; Enterovirus, HeLa, 37° C. in HeLa cells, read-out: Rhino 70 EC50): ≤ 78 nM; EC50 (Rhino 70; read-out: Rhino 70 EC50, 37° C. in HeLa cells, listed as Ex. 36): > 78 nM; EC50 [3]: 8.2 nM; EC50 (polioviruses 1, 2 and 3): 10 nM; CC50 (in vitro): 9.42 µg/mL (≈ 23.8 µM)
3 | CC(=O)Oc1cc(C)ccc1C1(OC(C)=O)C(=O)c2ccccc2C1=O [Example 74, 2-2-Acetoxy-1,3-dioxo-2,3-dihydro-1H-inden-2-yl] | – | – | – | – | ≥ 100000 | 3300 ± 1600 | 610 ± 38 | 700 ± 240 | 20000 ± 14000 | > 50000 | > 50000 | > 50000 | > 50000 | > 50000 | > 50000 | > 50000 | > 50000 | > 50000 | > 50000 | 145 to 147 | CC50 (uninfected cell cultures; Table 5, listed as Ex. 74): > 100000 nM; EC50 (Coxsackie A16): 13000 ± 320 nM; EC50 (Coxsackie A21): 26000 ± 340 nM; EC50 (Rhino 59): > 50000 nM; EC50 (Rhino 14): > 50000 nM; EC50 (Rhino 42): > 50000 nM; EC50 (Rhino 70; [5]): > 50000 nM; EC50 (Rhino 72): > 50000 nM; EC50 (Rhino 86): 26000 ± 18000 nM
4 | CCCCC(=O)NC1(c2ccc(C(C)C)cc2OC(=O)CCCC)C(=O)c2ccccc2C1=O [Example 69, 2-(1,3-Dioxo-2-pentanamido-2,3-dihydro-1H-inden-2-yl)-5-isopropylphenyl pentanoate] | – | – | – | – | – | – | – | – | – | – | – | – | – | – | – | – | – | – | – | 128 to 130 | EC50 Coxsackie-virus B1 (Coxsackie-virus B1): <0.01 µg/mL; EC50 Coxsackie-virus B3 (Coxsackie-virus B3): <0.01 µg/mL; EC50 Coxsackie-virus A24 (DN) (Coxsackie-virus A24 (DN)): <1.0 µg/mL; EC50 Coxsackie-virus A24 (HG) (Coxsackie-virus A24 (HG)): <1.0 µg/mL; EC50 Polio-virus 3 (Polio-virus 3; Table 3, HeLa, 37° C., 2 days): <1.0 µg/mL; CC50 [4]: >117 µg/mL
5 | CCCCC(=O)NC1(c2ccc(C(C)C)cc2OC(=O)CCCC)C(=O)c2ccccc2C1=O [Example 49, 2-(1,3-Dioxo-2-pentanamido-2,3-dihydro-1H-inden-2-yl)-5-isopropylphenyl pentanoate] | < 0.01 | < 0.01 | < 1 | < 1 | – | – | – | – | – | – | – | – | – | – | – | – | – | – | – | – | EC50 (Coxsackie-virus B4): < 0.01 µg/mL; EC50 (Coxsackie-virus A24 (DN)): < 1 µg/mL; EC50 (Polio-virus 2): < 1 µg/mL; CC50 (in vitro): > 100 µg/mL
